Values joined by “and” are separate entries in the source; they are usually repeats but may differ in a detail not shown here. Equal entries are not always repeated. Toxic doses and inconclusive results are not listed. The calls were made as follows: active = survival T/C of 150% or more; inactive = T/C below 125% in these data.
System: CD2F1 mice, L1210 leukemia ip, survival T/C
Assay: NCI In Vivo Anticancer Drug Screen. Data for tumor model L1210 Leukemia (intraperitoneal) in CD2F1 (CDF1) mice
Conditions: higher = longer survival
In short: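 Vehicle-treated tumor-bearing mice served as controls (C) for compound-treated mice (T). Reported figure is T divided by C.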

[1] = endpoint: mean survival time, dose: 100.0 mg/kg/injection, schedule: Q04DX003 (ip), vehicle: saline with Tween-80
[2] = endpoint: mean survival time, dose: 200.0 mg/kg/injection, schedule: Q04DX003 (ip), vehicle: saline with Tween-80
[3] = endpoint: mean survival time, dose: 400.0 mg/kg/injection, schedule: Q04DX003 (ip), vehicle: saline with Tween-80
[4] = endpoint: mean survival time, dose: 12.5 mg/kg/injection, schedule: Q01DX009 (ip), vehicle: saline with Tween-80
[5] = endpoint: mean survival time, dose: 25.0 mg/kg/injection, schedule: Q01DX009 (ip), vehicle: saline with Tween-80
[6] = endpoint: mean survival time, dose: 100.0 mg/kg/injection, schedule: Q01DX009 (ip), vehicle: saline with Tween-80
[7] = endpoint: mean survival time, dose: 200.0 mg/kg/injection, schedule: Q01DX009 (ip), vehicle: saline with Tween-80
[8] = endpoint: mean survival time, dose: 400.0 mg/kg/injection, schedule: Q01DX009 (ip), vehicle: saline with Tween-80
[9] = endpoint: mean survival time, dose: 75.0 mg/kg/injection, schedule: Q01DX001 (ip), vehicle: saline
[10] = endpoint: mean survival time, dose: 50.0 mg/kg/injection, schedule: Q01DX009 (ip), vehicle: saline with Tween-80

Measured: T/C

COC(=O)c1c(CC#N)ncn1C1OC(COC(C)=O)C(OC(C)=O)C1OC(C)=O (centres undefined)
inactive: endpoint: median survival time, dose: 8.25 mg/kg/injection, schedule: Q01DX005 (ip), vehicle: water 104 % of control | endpoint: median survival time, dose: 11.25 mg/kg/injection, schedule: Q01DX005 (ip), vehicle: water 100 % of control | endpoint: median survival time, dose: 16.5 mg/kg/injection, schedule: Q01DX005 (ip), vehicle: water 101 % of control | endpoint: median survival time, dose: 22.5 mg/kg/injection, schedule: Q01DX005 (ip), vehicle: water 98 % of control | endpoint: median survival time, dose: 33.0 mg/kg/injection, schedule: Q01DX005 (ip), vehicle: water 101 % of control | endpoint: median survival time, dose: 45.0 mg/kg/injection, schedule: Q01DX005 (ip), vehicle: water 101 % of control | endpoint: median survival time, dose: 66.0 mg/kg/injection, schedule: Q01DX005 (ip), vehicle: water 100 % of control | endpoint: median survival time, dose: 90.0 mg/kg/injection, schedule: Q01DX005 (ip), vehicle: water 100 % of control | endpoint: median survival time, dose: 132.0 mg/kg/injection, schedule: Q01DX005 (ip), vehicle: water 101 % of control | endpoint: median survival time, dose: 180.0 mg/kg/injection, schedule: Q01DX005 (ip), vehicle: water 100 % of control

COc1ccc(-c2nc(C)cc3cc(OC)c(OC)cc23)cc1OC
inactive: endpoint: mean survival time, dose: 12.5 mg/kg/injection, schedule: Q01DX009 (ip), vehicle: water 94 % of control | endpoint: mean survival time, dose: 25.0 mg/kg/injection, schedule: Q01DX009 (ip), vehicle: water 94 % of control | endpoint: mean survival time, dose: 50.0 mg/kg/injection, schedule: Q01DX009 (ip), vehicle: water 91 % of control | endpoint: mean survival time, dose: 100.0 mg/kg/injection, schedule: Q01DX009 (ip), vehicle: water 89 % of control

O=CCCNP(=O)(OCc1ccccc1)N(CCCl)CCCl (centres undefined)
inactive: endpoint: mean survival time, dose: 13.13 mg/kg/injection, schedule: Q01DX001 (ip), vehicle: DMSO 103 % of control | endpoint: mean survival time, dose: 26.25 mg/kg/injection, schedule: Q01DX001 (ip), vehicle: DMSO 98 % of control | endpoint: mean survival time, dose: 52.5 mg/kg/injection, schedule: Q01DX001 (ip), vehicle: DMSO 103 % of control | endpoint: mean survival time, dose: 105.0 mg/kg/injection, schedule: Q01DX001 (ip), vehicle: DMSO 104 % of control | endpoint: mean survival time, dose: 210.0 mg/kg/injection, schedule: Q01DX001 (ip), vehicle: DMSO 101 % of control | endpoint: mean survival time, dose: 420.0 mg/kg/injection, schedule: Q01DX001 (ip), vehicle: DMSO 101 % of control | endpoint: mean survival time, dose: 840.0 mg/kg/injection, schedule: Q01DX001 (ip), vehicle: DMSO 101 % of control

O=C(NC(=O)c1ccccc1)NC1=C(Cl)C(=O)c2ccccc2C1=O
inactive: endpoint: mean survival time, dose: 100.0 mg/kg/injection, schedule: Q01DX001 (ip), vehicle: other 106 % of control | endpoint: mean survival time, dose: 200.0 mg/kg/injection, schedule: Q01DX001 (ip), vehicle: other 104 % of control | endpoint: mean survival time, dose: 400.0 mg/kg/injection, schedule: Q01DX001 (ip), vehicle: other 109 % of control

CCCCCCCCCCCCCCCCOc1ccccc1NC(=O)CC(C)=O
inactive: [1] 96 % of control | [2] 94 % of control | [3] 95 % of control

NC(=S)N/N=C/c1cc(-c2cccc(N)c2)ccn1
inactive: endpoint: mean survival time, dose: 6.25 mg/kg/injection, schedule: Q01DX009 (ip), vehicle: saline with Tween-80 113 % of control | endpoint: mean survival time, dose: 9.4 mg/kg/injection, schedule: Q01DX009 (ip), vehicle: saline with Tween-80 116 % of control and 104 % of control | [4] 115 % of control | endpoint: mean survival time, dose: 18.8 mg/kg/injection, schedule: Q01DX009 (ip), vehicle: saline with Tween-80 115 % of control and 118 % of control | [5] 123 % of control | endpoint: mean survival time, dose: 37.5 mg/kg/injection, schedule: Q01DX009 (ip), vehicle: saline with Tween-80 115 % of control and 119 % of control | endpoint: mean survival time, dose: 75.0 mg/kg/injection, schedule: Q01DX009 (ip), vehicle: saline with Tween-80 89 % of control and 104 % of control and 107 % of control

COc1ccc(C(Sc2ccccc2)c2ccc(OC)cc2)cc1
inactive: [6] 95 % of control | [1] 95 % of control | [7] 90 % of control | [2] 95 % of control | [8] 86 % of control | [3] 96 % of control

OC(O)(C(F)(F)F)C(F)(F)F
inactive: endpoint: mean survival time, dose: 50.0 mg/kg/injection, schedule: Q01DX005 (ip), vehicle: saline 103 % of control | endpoint: mean survival time, dose: 100.0 mg/kg/injection, schedule: Q01DX005 (ip), vehicle: saline 91 % of control | endpoint: mean survival time, dose: 100.0 mg/kg/injection, schedule: Q04DX002 (ip), vehicle: saline 103 % of control | endpoint: mean survival time, dose: 200.0 mg/kg/injection, schedule: Q04DX002 (ip), vehicle: saline 109 % of control

O=C(Nc1nccs1)C(F)(F)F
inactive: endpoint: median survival time, dose: 50.0 mg/kg/injection, schedule: Q01DX009 (ip), vehicle: saline 100 % of control | endpoint: median survival time, dose: 100.0 mg/kg/injection, schedule: Q01DX009 (ip), vehicle: saline 108 % of control | endpoint: median survival time, dose: 200.0 mg/kg/injection, schedule: Q01DX009 (ip), vehicle: saline 108 % of control | endpoint: median survival time, dose: 400.0 mg/kg/injection, schedule: Q01DX009 (ip), vehicle: saline 109 % of control

CN(Cc1ccccc1)/C(N)=N/N
inactive: [9] 102 % of control | endpoint: mean survival time, dose: 150.0 mg/kg/injection, schedule: Q01DX001 (ip), vehicle: saline 107 % of control

OC1CC2CC2CC1O (centres undefined)
inactive: [1] 103 % of control | [2] 92 % of control | [3] 96 % of control

CCC(=O)NC1=CC(=O)c2ccccc2C1=O
inactive: [5] 101 % of control | [10] 100 % of control

Cc1cc[n+](CC(=O)CCc2ccc(C(=O)C[n+]3ccc(C)cc3)cc2)cc1
inactive: endpoint: mean survival time, dose: 1.5 mg/kg/injection, schedule: Q04DX003 (ip), vehicle: saline 100 % of control | endpoint: mean survival time, dose: 3.0 mg/kg/injection, schedule: Q04DX003 (ip), vehicle: saline 103 % of control | endpoint: mean survival time, dose: 6.0 mg/kg/injection, schedule: Q04DX003 (ip), vehicle: saline 95 % of control

O=C(O)c1cc(C(=O)O)c(-c2ccccc2)c(-c2ccccc2)c1
inactive: endpoint: mean survival time, dose: 100.0 mg/kg/injection, schedule: Q01DX001 (ip), vehicle: saline 97 % of control | endpoint: mean survival time, dose: 200.0 mg/kg/injection, schedule: Q01DX001 (ip), vehicle: saline 97 % of control | endpoint: mean survival time, dose: 400.0 mg/kg/injection, schedule: Q01DX001 (ip), vehicle: saline 101 % of control

COc1ccc(C(OCC2OC(n3ccc(NC(=O)c4ccccc4)nc3=O)C(O)C2O)(c2ccccc2)c2ccccc2)cc1 (centres undefined)
inactive: endpoint: median survival time, dose: 12.5 mg/kg/injection, schedule: Q01DX005 (ip), vehicle: saline with Tween-80 100 % of control | endpoint: median survival time, dose: 25.0 mg/kg/injection, schedule: Q01DX005 (ip), vehicle: saline with Tween-80 104 % of control | endpoint: median survival time, dose: 50.0 mg/kg/injection, schedule: Q01DX005 (ip), vehicle: saline with Tween-80 104 % of control | endpoint: median survival time, dose: 100.0 mg/kg/injection, schedule: Q01DX005 (ip), vehicle: saline with Tween-80 98 % of control | endpoint: median survival time, dose: 200.0 mg/kg/injection, schedule: Q01DX005 (ip), vehicle: saline with Tween-80 95 % of control

NC(=O)NC1OC(CO)C(O)C(O)C1O (centres undefined)
inactive: endpoint: mean survival time, dose: 100.0 mg/kg/injection, schedule: Q04DX003 (ip), vehicle: saline 100 % of control | endpoint: mean survival time, dose: 200.0 mg/kg/injection, schedule: Q04DX003 (ip), vehicle: saline 100 % of control | endpoint: mean survival time, dose: 400.0 mg/kg/injection, schedule: Q04DX003 (ip), vehicle: saline 105 % of control

COc1ccc(N=C=S)cc1N=C=S
inactive: endpoint: mean survival time, dose: 6.25 mg/kg/injection, schedule: Q01DX001 (ip), vehicle: saline with Tween-80 98 % of control | endpoint: mean survival time, dose: 12.5 mg/kg/injection, schedule: Q01DX001 (ip), vehicle: saline with Tween-80 97 % of control | endpoint: mean survival time, dose: 25.0 mg/kg/injection, schedule: Q01DX001 (ip), vehicle: saline with Tween-80 101 % of control

CCCOP(=O)(CCl)OCCC
inactive: endpoint: mean survival time, dose: 100.0 mg/kg/injection, schedule: Q01DX009 (ip), vehicle: saline 95 % of control | endpoint: mean survival time, dose: 200.0 mg/kg/injection, schedule: Q01DX009 (ip), vehicle: saline 100 % of control | endpoint: mean survival time, dose: 400.0 mg/kg/injection, schedule: Q01DX009 (ip), vehicle: saline 97 % of control

O=C(O)c1cc(F)c(F)c(F)c1F
inactive: [4] 91 % of control | [5] 97 % of control | endpoint: mean survival time, dose: 25.0 mg/kg/injection, schedule: Q04DX003 (ip), vehicle: saline with Tween-80 96 % of control | [10] 103 % of control | endpoint: mean survival time, dose: 50.0 mg/kg/injection, schedule: Q04DX003 (ip), vehicle: saline with Tween-80 94 % of control

CCCCn1c(=O)cc(C(=O)O)c2ccccc21
inactive: [6] 93 % of control | [7] 97 % of control | [8] 89 % of control

C/C(Cl)=C/C(=O)O.[Ag]
inactive: [9] 93 % of control
